# Results: patent US20170369892A1, “HORMONE DEGRADABLE CRISPR-BASED TRANSCRIPTION FACTORS” (University of Washington, priority 2016, published 2017)
# “Also recorded” adds a separate entry of the source.
# B1: tir1-D/M: mutant of TIR1 F-box protein (protein, UniProt Q570C0 1-594, looked up, variant D170E M473L)
# Protein TRANSPORT INHIBITOR …: MQKRIALSFPEEVLEHVFSFIQLDKDRNSVSLVCKSWYEIERWCRRKVFIGNCYAVSPATVIRRFPKVRSVELKGKPHFADFNLVPDGWGGYVYPWIEAMSSSYTWLEEIRLKRMVVTDDCLELIAKSFKNFKVLVLSSCEGFSTDGLAAIAATCRNLKELDLRESDVDEVSGHWLSHFPDTYTSLVSLNISCLASEVSFSALERLVTRCPNLKSLKLNRAVPLEKLATLLQRAPQLEELGTGGYTAEVRPDVYSGLSVALSGCKELRCLSGFWDAVPAYLPAVYSVCSRLTTLNLSYATVQSYDLVKLLCQCPKLQRLWVLDYIEDAGLEVLASTCKDLRELRVFPSEPFVMEPNVALTEQGLVSVSMGCPKLESVLYFCRQMTNAALITIARNRPNMTRFRLCIIEPKAPDYLTLEPLDIGFGAIVEHCKDLRRLSLSGLLTDKVFEYIGTYAKKMEMLSVAFAGDSDLGLHHVLSGCDSLRKLEIRDCPFGDKALLANASKLETMRSLWMSSCSVSFGACKLLGQKMPKLNVEVIDERGAPDSRPESCPVERVFIYRTVAGPRFDMPGFVWNMDQDSTMRFSRQIITTNGL
# Assays:
# [1] = system: laboratory strains of yeast; settings: grown in standard conditions; cited from earlier work
# [2] = system: ADCTF (auxin receiver) strain, minimal CYC1 promoter driving EGFP; experiment: Cytometry of ADCTF receiver yeast strains (GFP reporter) after auxin induction; type: cell-based, Saccharomyces cerevisiae
# Text: Synthetic, scalable, auxin-modulated transcription factors are provided. To link an auxin sensor to diverse transcriptional responses and targets, auxin degradable CRISPR transcription factors (ADCTFs) with three modular domains were designed (see FIG. 1A). In some embodiments, a core component of the ADCTFs can be the CRISPR-based transcription factor described by Farzadfard, et al. (“Tunable and multifunctional eukaryotic transcription factors based on CRISPR/Cas,” ACS synthetic biology 2.10 (2013): 604-613), wherein a dCas9 protein functions as a programmable DNA binding module. The dCas9 was fused to a transcriptional effector domain, in this case the transcriptional activator VP64, and to an IAA degron. In the presence of an AFB, ADCTFs should generally be ubiquitinated and degraded when exposed to auxin. The ADCTFs were tested by targeting them to activate the expression of EGFP from a minimal CYC1 promoter and observing deactivation of fluorescence upon the addition of auxin. […] Auxin dependent regulation was independent of the promoter being regulated by the ADCTF (see FIG. 6B). The observed effect was also reversible.
# (§1) All cytometry measurements were acquired with an ACCURI™ C6 cytometer with attached CSAMPLER™ apparatus using 488 nm and 640 nm excitation lasers and a 533 nm (FL-1: YFP/GFP) emission filter. For experiments involving steady-state ADC behavior (see FIGS. 6A-7B) cultures were grown overnight in SC media with 1 nM beta-estradiol for ADC expression induction. The next morning they were diluted down 1:100 and then grown up for 5 hours and then induced with varying auxin concentrations from stock solutions. These cultures were then grown overnight and fluorescence was measured the next day. For the replicates, untreated cultures from the previous day's experiments were used as overnights to begin the next day's cultures.
# For time course experiments, cultures were grown overnight in SC media with 1 nM beta-estradiol for ADC expression induction. The next morning two sets of parallel cultures were set up by diluting down the overnights 1:100. These were then grown up for 5 hours and then induced with 30 μM auxin and reads were taken every 30 minutes for approximately seven hours. A final steady state reading was taken the next day.
# Cytometry data were analyzed using custom R scripts and the FLOWCORE™ package by first gating for the yeast diploid population and then generating mean fluorescence values for every point. These datasets were then collectively fit using the LOESS fitting function in R and metrics and error were derived from these fits. For the recovery experiments, the same protocol was used except the overnight cultures were grown up in SC with 1 nM beta-estradiol and 30 μM auxin.
# [3] = system: UBQ1 promoter driving venus-luciferase reporter repressed by ADCTF; experiment: ADCTF-regulated venus-luciferase reporter in plants after auxin treatment; type: in vivo, Arabidopsis thaliana
# Text: FIG. 12A is a schematic of the genetic circuit that was transformed into Arabidopsis thaliana to test the function of the hormone degradable CRISPR based transcription factor (HDCTF). […] These complex together and cause repression of the UBQ1 promoter, which is driving the expression of a venus-luciferase fusion reporter with a nuclear localization tag fused to it. Auxin can interact with the degron domain of the ADCTF (a version of the HDCTF) to degrade the transcription factor and relieve repression.
# FIG. 12B is graph showing the normalized luciferase reporter activity over time for two plants, one of which has an ADCTF with a functional degron and the other which has a ADCTF with a stabilized degron. The orange bar indicates when the plants were exposed to either an auxin (solid line) or control (dashed line) treatment. The box plot summarizes the behavior of several plant lines with the functional or stabilized degron ADCTFs eighty minutes after treatment.
# [4] = system: receiver cells (ADCTF, gRNA targeting minimal CYC1 promoter driving EGFP); experiment: Coculture of sender and receiver strains treated with IAM; type: cell-based, Saccharomyces cerevisiae; settings: saturating IAM
# Text: FIG. 5A illustrates coculture of sender and receiver strains. Sender cells convert IAM into auxin that then diffuses out of sender cells and into receiver cells where it causes the degradation of ADCTFs, producing a drop in fluorescence.
# Sender cells can produce a tunable auxin response in receiver cells. Sender and receiver cells were cocultured in different ratios to measure the effect of sender cell concentration on auxin signal production. Senders constitutively express iaaH and the receivers expressed an activating ADCTF and a gRNA targeting a minimal CYC1 promoter driving EGFP (see FIG. 5A). […] Three different receiver strains with a range of responses to auxin were tested with the sender strain. […] In addition, a 10% fraction of sender cells is sufficient for a significant change in fluorescence in receiver cells at steady state and a 50% fraction produces a nearly saturating signal (see FIGS. 5C and 5D).
# [5] = system: EYFP-IAA17|AFB2 auxin reporting strain expressing iaaH; experiment: Time-lapse cytometry of iaaH sender strain with EYFP-IAA17|AFB2 auxin reporter after IAM or auxin; type: cell-based, Saccharomyces cerevisiae
# Text: FIG. 3A illustrates an auxin sender strain design. The iaaH enzyme of Agrobacterium tumefaciens catalyzes the conversion of indole-3-acetamide (IAM) into auxin, inducing the degradation of proteins fused to an auxin degron. The iaaH enzyme (sender cells) was integrated into an auxin reporting strain (the EYFP-IAA17|AFB2 strain from Havens, et al. (2012) Plant Physiol. 160, 135-42) to test for internal auxin production.
# Yeast can produce tunable levels of auxin via expression of Iaah from Agrobacterium tumefaciens. To generate an auxin producing strain, half of the IAM pathway from Agrobacterium tumefaciens was integrated into yeast (see Zhao, Y. (2010) Annu. Rev. Plant Biol. 61, 49-64). The IAM pathway is a two-step enzymatic process that converts tryptophan to IAM and then into auxin. The first step is via tryptophan-2-monooxygenase (iaaM, not examined here). The second step is catalyzed by indole-3-acetamide hydrolase (iaaH). To test whether yeast could produce auxin from IAM using only the second enzyme, the iaaH gene from the Agrobacterium tumefaciens Ti plasmid (see Pacurar, D. I., et al. (2011) Physiol. Mol. Plant Pathol. 76, 76-81) was integrated into an auxin reporting yeast strain (see FIG. 3A) containing a IAA-YFP fusion protein. After adding IAM, reporter degradation rates were measured via time-lapse cytometry (see FIG. 3B).
# as §1
molecule,measurement,setting,value
auxin,effects on laboratory strains of yeast,[1],does not have measurable effects
same,release of regulation with minimal pGAL promoter driving GFP,"[2]; 30 μM auxin, degron 17 with AFB2 or TIR1-DM, compared with pCYC1 target",comparable release of regulation
same,GFP fluorescence level following addition of auxin,"[2]; time-lapse cytometry, ADCTF strain expressing gRNA",dropped to basal levels; also recorded: dropped to levels at or below the control (no gRNA) levels
same,reporter expression after auxin was removed,[2]; wash-out after steady state,returned to its activated state
same,normalized luciferase reporter activity,"[3]; ADCTF with functional degron, eighty minutes after treatment",significant increase in reporter expression
same,reporter expression in root tip (confocal microscopy),[3]; root tip,significant increase in reporter expression
"NC(=O)Cc1c[nH]c2ccccc12 [IAM, indole-3-acetamide]",fluorescence / gene activation in receiver strain,[4],dropped in fluorescence over time; also recorded: comparable to direct addition of auxin
same,delay between addition of IAM and production of auxin,[5],no significant delay
same,auxin-induced degradation rate (t1/2) of reporter,"[5]; for a given molarity, compared with auxin",comparable to that of native auxin
same,fluorescence of sender cells following addition of IAM,[5]; time-lapse cytometry,decreased to basal levels
same,steady state fluorescence of sender cells,[5]; varying doses of IAM,lower steady state fluorescence; also recorded: converge to those of auxin
B1,degradation kinetics (time to 50% degradation),"[2]; 30 μM auxin induction, ranking across library",fastest overall
same,auxin sensitivity range conferred by F-box protein,"[2]; steady state, dose response twenty-four hours after induction",narrowest
